Assay [1] relates to SW1 tumors. The assay is described as follows: NSG melanoma model: SW1 tumor growth in immunodeficient mice. In kind it is in vivo. An excerpt: All animals were housed at the Vincent A. Stabile Research building animal facility at H. Lee Moffitt Cancer Center & Research Institute, which is fully accredited by the Association for Assessment and Accreditation of Laboratory Animal Care International (AAALAC, #434), and are managed in accordance with the Guide for the Care and Use of Laboratory Animals (“The Guide”), the Animal Welfare Regulations Title 9 Code of Federal Regulations Subchapter A, “Animal Welfare”, Parts 1-3 (AWR), the Public Health Service Policy on Humane Care and Use of Laboratory Animals (PHS Policy), and by the USF Institutional Animal Care and Use Committee's Principles and Procedures of Animal Care and Use (IACUC Principles). The experiments and protocols detailed in this study received institutional approval by the Moffitt IACUC (RIS00001625). Four-to-six-week-old female C3H/HeN and male C57BL6 mice were purchased from Charles Rivers Laboratories for the indicated experiments. Four-to-six-week-old male NSG mice from the Lau laboratory breeding colony were used for the indicated experiments. Power calculations were used to determine mouse cohort sizes to detect significant changes in tumor sizes. […] Mouse tumor volumes were measured using length, width and depth divided by 2. […]

A further assay concerns 4T1 mouse breast tumor. The assay is described as follows: 4T1 mouse breast tumor growth ± L-fucose supplemented water. It counts as in vivo, Balb/C mice. The settings on record: 500 mM L-fucose supplemented water ad libitum from 100 mm^3 (FIG. 3H). As to the method: To determine which immune cell populations were affected by L-fucose, another mouse melanoma model treated with control or L-fucose-supplemented water was used. […] Rather than being immunosuppressive, these cells elicit immunostimulatory activity (at this point in terms of augmenting T cell activation) (FIG. 3). […] In fact, upon reaching 100 mm^3, 4T1 mouse breast tumor-bearing Balb/C mice were provided with control or 500 mM L-fucose supplemented water ad libitum and L-fucose suppressed tumor growth by 50% (FIG. 3H). Moreover, the number of TILs increased following administration of L-fucose (FIG. 3C). We next looked at the specific populations of cells proliferating in TILs following L-fucose administration. We saw a 3.1 fold increase in MDSC cell and CD4 T cells (FIG. 3D). To verify that the increases in the TIL populations were attributed to fucosylation, we treated mice with L-fucose or 2FF (fucosylation inhibitor) and observed the change in MDSC. We observed that L-fucose increased MDSC populations, but 2FF decreased MDSC (FIG. 3E). […] This shift is depicted in FIG. 4.

The next assay relates to TUBO (mouse BC). The assay is described as follows: TUBO breast cancer growth in immunodeficient mice ± L-fuc. It counts as in vivo. The settings on record: immunodeficient NSG mice ± 500 mM L-fuc (FIG. 3A).
Assay [2] relates to SW1 tumors. Kind of assay: Anti-PD-1 mouse model, SW1. In kind it is in vivo, C3H/HeN mice. An excerpt: FIGS. 21A and 21B Administration of combination L-fucose and anti-PD-1 suppresses tumors and increases intra-tumoral CD4+T central and effector memory cells (a) Volumetric growth curves for SW1 tumors in C3H/HeN mice (left) and SM1 tumors in C57BL/6 mice (right) fed L-fucose (LF) and treated with PBS (control) or anti-PD-1. (concurrent initiation of LF anti-PD1 (▾)). The tumor growth curves are means±SEM from ≥7 mice per group. (b) Volumetric growth curves for SM1 tumors in C57BL/6 mice fed ±L-fucose (LF) and treated with PBS (control) or anti-PD-1 (PD-1). (concurrent initiation of LF±PD1 (▾)). The tumor growth curves are means±SEM from ≥7 mice per group. *=p<0.05. At Day 7 (prior to administration of LF or PD1), Day 21 (endpoint for tumors of control-treated mice), Day 31 (endpoint for tumors of LF-treated mice), Day 63 (endpoint for tumors of PD1-treated mice), the primary tumors (Tumor) and draining lymph nodes (LN) of 4-5 mice per treatment group were analyzed by flow cytometry for intratumor levels of CD4+ and CD8+T subpopulations (naive/terminal, stem central/central/effector memory) and dendritic cell (DC) subpopulations (cDC1, cDC2, and monocyte-derived DC (moDC)) as in FIG. 15. Proportions of CD4+, CD8+, and DC subpopulations in each organ at each timepoints are represented by the color-coded pie charts (each pie chart represents 4-5 mice). […]

Consider one molecule from patent US20240197761A1, “FUCOSYLATION AND IMMUNE MODULATION IN CANCER” (H. LEE MOFFITT CANCER CENTER AND RESEARCH INSTITUTE, INC., priority 2021, published 2024).

On to `C[C@H](O)[C@@H](O)[C@@H](O)[C@H](O)C=O` [L-fucose], for which the SW1 tumor growth entry in the assay with SW1 tumors [1] is “did not reduce”. In addition, the “suppression of tumor growth” value in the assay on 4T1 mouse breast tumor turned out to be 50%. The TUBO tumor growth entry in the assay on TUBO (mouse BC) is on record as “not effected”. Further, the “efficacy of anti-PD1 in combination with oral L-fuc” value in the assay with SW1 tumors [2] was “did not enhance”.
